From PMC12362587, “Untargeted Diversity-Oriented Synthesis for the Discovery of New Antitumor Agents: An Integrated Approach of Inverse Virtual Screening, Bioinformatics, and Omics for Target Deconvolution” (Journal of Medicinal Chemistry, 2025)
“And” between values parts separate entries of the source, which are not always exact repeats. Equal entries are not always repeated.

How the values were obtained:
[1] = molecular target: T1, protein-tyrosine kinase 6 (BRK) (Homo sapiens, UniProt Q13882); assay: BRK kinase assay (BPS Bioscience); type: biochemical; conditions: top concentration 30 μM, read-out: EC50 or IC50, protein-tyrosine kinase 6
T1 construct: purchased BPS Bioscience
Procedure: The assay was performed in a volume of 50 μL in a 96-well white plate. […] For activity measurement, the kinase (final concentration, 10 ng per reaction), PTK (Poly-Glu, Tyr 4:1; BRK substrate), ATP (final concentration, 500 μM) and compounds were incubated for 45 min at 30 °C. The compounds were added at different concentrations in the reaction buffer, starting from a final concentration of 30 μM. Buffer with the same amount of DMSO (1%) was used as a negative control. After the incubation time, ADP-Glo Kinase detection reagent was added for 45 min at room temperature. The generated luminescent signal was read in end point mode using a PerkinElmer AlphaScreen multimodal plate reader (PerkinElmer, Waltham, MA, USA). Experiments were performed in triplicate. IC50 values were calculated with GraphPad Prism 8.0 software by nonlinear dose–response inhibition regression.

rat TRPA1 = molecular target: T2, rat TRPA1 (Rattus norvegicus, UniProt Q6RI86); assay: Ca2+-imaging assay with Fluo-4 AM; type: cell-based; conditions: agonist effect, HEK-293 cells overexpressing rat TRPA1, Fluo-4 AM; read-out: EC50 or IC50, transient receptor potential A1
T2 construct: expressed in transfected cells; host or cells: HEK-293
Procedure: (§1) HEK-293 cells, stably overexpressing recombinant rat TRPM8 or rat TRPA1, were cultured as monolayers in 100 mm Petri dishes using Minimum Essential Media supplemented with 2 mM glutamine, 1% nonessential amino acids, 10% FBS, and maintained at 37 °C under 5% CO2. On the day of the experiment, both nontransfected and transfected HEK-293 cells were loaded for 1 h at room temperature in the dark with the calcium-sensitive fluorescent probe Fluo-4 AM (4 μM, dissolved in dimethyl sulfoxide with 0.02% Pluronic F-127). After loading, cells were washed twice with Tyrode’s solution (145 mM NaCl, 2.5 mM KCl, 1.5 mM CaCl2, 1.2 mM MgCl2, 10 mM D-glucose, 10 mM HEPES, pH 7.4) and transferred to a quartz cuvette (approximately 100,000 cells) in a spectrofluorometer (PerkinElmer LS50B; λEX = 488 nm, λEM = 516 nm) under continuous stirring. Fluorescence was recorded before and after the addition of various concentrations of test compounds. The observed effects were normalized to the response elicited by ionomycin (4 μM). Baseline fluorescence values from nontransfected HEK-293 cells were subtracted from the measurements obtained in transfected cells. The potency of the test compounds was expressed as the concentration required to elicit a half-maximal agonist effect (EC50), measured as half-maximal increases in intracellular calcium concentration ([Ca^2+]-i). The efficacy of TRPA1 agonists was reported as a percentage of the maximal effect induced by allyl isothiocyanate (AITC, 100 μM). Antagonistic or desensitizing effects were assessed by preincubating cells with the test compounds in the quartz cuvette for 5 min before stimulating them with the specific TRP agonist (AITC, 100 μM for TRPA1, or icilin, 0.25 μM for TRPM8). IC50 values were determined as the concentration required to produce a half-maximal inhibition of the agonist effect, with the agonist-induced [Ca^2+]-i response set at 100%. Measurements of [Ca^2+]-i in TRPM8-expressing cells were conducted at 22 °C using a Fluorescence Peltier System (PTP-1, PerkinElmer). All experiments were performed in triplicate or greater. Curve fitting (sigmoidal concentration–response with variable slope) and parameter estimation were conducted using GraphPad Prism 10 (GraphPad Software Inc., San Diego, CA).

rat TRPM8 = molecular target: T3, rat TRPM8 (Rattus norvegicus, UniProt Q8R455); assay: Ca2+-imaging assay with Fluo-4 AM; type: cell-based; conditions: inhibition of icilin 0.25 μM, HEK-293 cells overexpressing rat TRPM8, Fluo-4 AM; read-out: EC50 or IC50, transient receptor potential M8
T3 construct: expressed in transfected cells; host or cells: HEK-293
Procedure: as §1

[2] = molecular target: T4, Poly [ADP-ribose] polymerase 1 (Homo sapiens, UniProt P09874); assay: PARP1 Colorimetric Assay Kit (BPS Bioscience); type: biochemical; conditions: top concentration 30 μM; read-out: EC50 or IC50, Poly [ADP-ribose] polymerase 1
T4 construct: purchased BPS Bioscience
Procedure: The assay was performed in a volume of 50 μL in 96-well transparent plates. The PARP1 assay kit (BPS Bioscience, USA) was performed by first coating the 96-well plate with histone proteins, then left at 4 °C overnight. Next, Poly [ADP-ribose] polymerase 1 (PARP1) enzyme (final concentration, 0.33 ng per reaction), a mixture of biotinylated NAD^+ (PARP substrate) and compounds were incubated for 1 h at room temperature. The compounds were added at different concentrations in the reaction buffer, starting from a final concentration of 30 μM. Buffer with the same amount of DMSO (1%) was used as a negative control. After incubation, the plate was treated with streptavidin-HRP followed by the addition of the colorimetric HRP substrate generating a colored solution. The generated signal was read at an absorbance of 450 nm using a microplate reader with UV/vis spectrophotometer (Multiskan Go, Thermo Fisher Scientific, Waltham, MA, USA). Experiments were performed in triplicate. IC50 values were calculated with GraphPad Prism 8.0 software by nonlinear dose–response inhibition regression.

A375 cells = assay: Intracellular ROS measurement (DCFH-DA); type: cell-based, human; conditions: 10, 5, 2.5 μM for 2–8 h
Procedure: Cells were treated with compounds 31 and 63 (10, 5, and 2.5 μM) for 2–8 h, and ROS levels were subsequently measured.
The intracellular ROS generation was detected using 10 μM DCFH-DA. This compound is oxidized by ROS to fluorescent […] (DCF) inside the cells. A375 cells were seeded (5 × 10^3 cells/well) in a volume of 100 μL per well in black 96-well OptiPlate (PerkinElmer, USA), allowing them to adhere for 24 h. After, the cells were incubated for 2, 4, and 8 h with compounds (10, 5, and 2.5 μM). Subsequently, the cells were washed twice with PBS and a staining solution containing DCFH-DA in serum-free medium without phenol red was added for 30 min at 37 °C in the dark. The stained cells were washed, and the fluorescence signals (excitation/emission 485 nm/535 nm) were read using a PerkinElmer EnSpire multimode plate reader and expressed as DCFH fluorescence intensity.

human CB2R = human CB2R (Homo sapiens, UniProt P34972); assay: Competition binding assay, displacement of [3H]-CP-55,940; parameters: host or cells: HEK-293 membranes; conditions: displacement of [3H]-CP-55,940, HEK-293 membranes; read-out: EC50 or IC50, cannabinoid receptor 2
Procedure: Binding assays at equilibrium were conducted as described in Di Micco et al., 2024. […]. All compounds were evaluated following the manufacturer’s protocol (PerkinElmer distributed by Revvity, Italy). […] The K i values were calculated using the Cheng-Prusoff equation, based on the IC50 values obtained through GraphPad PRISM software (version 10.2.2). The results are expressed as K i (μM), represented as mean ± SEM, and reflect the average of three independent experiments performed in duplicate.

Chain of human CB2R (P34972 whole entry): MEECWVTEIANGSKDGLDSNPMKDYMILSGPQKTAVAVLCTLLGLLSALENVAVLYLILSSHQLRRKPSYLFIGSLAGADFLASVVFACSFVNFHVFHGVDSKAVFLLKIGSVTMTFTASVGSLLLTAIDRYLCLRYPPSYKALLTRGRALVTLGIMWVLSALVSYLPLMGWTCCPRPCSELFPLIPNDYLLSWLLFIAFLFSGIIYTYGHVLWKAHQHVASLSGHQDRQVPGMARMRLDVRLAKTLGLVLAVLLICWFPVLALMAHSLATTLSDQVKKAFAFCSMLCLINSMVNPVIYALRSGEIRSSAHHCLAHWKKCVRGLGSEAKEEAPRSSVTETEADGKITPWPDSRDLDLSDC
T2 sequence (Q6RI86 whole entry): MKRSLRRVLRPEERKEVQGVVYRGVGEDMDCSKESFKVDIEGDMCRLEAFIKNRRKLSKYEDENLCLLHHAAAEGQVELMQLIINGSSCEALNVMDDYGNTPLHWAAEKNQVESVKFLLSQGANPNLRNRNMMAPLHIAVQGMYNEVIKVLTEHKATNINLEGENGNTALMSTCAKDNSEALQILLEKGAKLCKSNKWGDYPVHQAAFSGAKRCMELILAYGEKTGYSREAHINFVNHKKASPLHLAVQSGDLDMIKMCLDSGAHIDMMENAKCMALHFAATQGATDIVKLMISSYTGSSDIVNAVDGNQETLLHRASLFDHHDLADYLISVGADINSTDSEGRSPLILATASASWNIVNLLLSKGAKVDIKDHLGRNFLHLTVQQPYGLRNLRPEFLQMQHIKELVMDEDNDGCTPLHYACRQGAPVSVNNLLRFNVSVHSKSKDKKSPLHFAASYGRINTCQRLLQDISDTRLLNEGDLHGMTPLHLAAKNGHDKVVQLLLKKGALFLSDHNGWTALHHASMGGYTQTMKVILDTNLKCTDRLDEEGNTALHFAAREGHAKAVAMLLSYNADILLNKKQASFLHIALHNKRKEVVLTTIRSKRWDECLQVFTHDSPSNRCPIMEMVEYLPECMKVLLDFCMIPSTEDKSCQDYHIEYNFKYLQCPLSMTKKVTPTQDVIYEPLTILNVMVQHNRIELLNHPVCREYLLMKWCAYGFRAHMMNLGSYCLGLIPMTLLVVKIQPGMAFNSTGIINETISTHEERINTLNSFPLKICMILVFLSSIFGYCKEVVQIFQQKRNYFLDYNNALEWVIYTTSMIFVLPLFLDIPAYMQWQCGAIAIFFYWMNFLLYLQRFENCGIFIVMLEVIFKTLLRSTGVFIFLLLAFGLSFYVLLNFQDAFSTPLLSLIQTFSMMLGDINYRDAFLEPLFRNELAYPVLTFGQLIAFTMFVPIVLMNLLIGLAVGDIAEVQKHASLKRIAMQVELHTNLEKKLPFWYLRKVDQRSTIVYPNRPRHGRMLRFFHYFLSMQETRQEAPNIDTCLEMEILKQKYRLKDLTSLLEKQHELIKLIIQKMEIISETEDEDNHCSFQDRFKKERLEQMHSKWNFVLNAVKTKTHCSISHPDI
T4 sequence (P09874 whole entry): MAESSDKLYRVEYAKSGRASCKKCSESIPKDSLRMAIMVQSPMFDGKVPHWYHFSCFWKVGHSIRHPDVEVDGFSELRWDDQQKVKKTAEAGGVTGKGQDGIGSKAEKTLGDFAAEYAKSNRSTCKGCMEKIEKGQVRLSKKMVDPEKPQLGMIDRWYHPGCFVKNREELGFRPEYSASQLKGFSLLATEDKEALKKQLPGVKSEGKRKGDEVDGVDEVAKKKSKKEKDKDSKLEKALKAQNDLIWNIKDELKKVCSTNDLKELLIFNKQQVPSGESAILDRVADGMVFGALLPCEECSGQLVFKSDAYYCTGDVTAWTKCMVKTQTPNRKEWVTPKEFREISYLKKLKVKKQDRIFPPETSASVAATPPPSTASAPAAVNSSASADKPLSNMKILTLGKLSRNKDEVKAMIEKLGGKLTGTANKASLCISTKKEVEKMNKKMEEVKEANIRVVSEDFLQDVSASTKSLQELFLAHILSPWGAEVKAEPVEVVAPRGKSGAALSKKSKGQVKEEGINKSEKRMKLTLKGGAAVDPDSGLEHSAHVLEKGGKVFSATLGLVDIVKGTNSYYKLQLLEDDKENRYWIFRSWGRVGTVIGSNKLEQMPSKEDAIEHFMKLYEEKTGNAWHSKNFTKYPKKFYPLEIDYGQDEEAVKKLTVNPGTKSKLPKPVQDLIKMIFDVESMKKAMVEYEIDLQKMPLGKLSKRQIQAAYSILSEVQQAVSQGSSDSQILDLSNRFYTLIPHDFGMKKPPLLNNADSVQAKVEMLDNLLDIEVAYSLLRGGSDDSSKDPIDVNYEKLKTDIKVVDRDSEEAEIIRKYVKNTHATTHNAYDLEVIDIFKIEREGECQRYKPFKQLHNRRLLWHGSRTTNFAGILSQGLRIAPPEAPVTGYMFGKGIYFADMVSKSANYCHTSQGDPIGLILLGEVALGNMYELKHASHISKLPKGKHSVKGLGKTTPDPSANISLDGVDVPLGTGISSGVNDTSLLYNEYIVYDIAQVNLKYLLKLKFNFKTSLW
T1 sequence (Q13882 whole entry): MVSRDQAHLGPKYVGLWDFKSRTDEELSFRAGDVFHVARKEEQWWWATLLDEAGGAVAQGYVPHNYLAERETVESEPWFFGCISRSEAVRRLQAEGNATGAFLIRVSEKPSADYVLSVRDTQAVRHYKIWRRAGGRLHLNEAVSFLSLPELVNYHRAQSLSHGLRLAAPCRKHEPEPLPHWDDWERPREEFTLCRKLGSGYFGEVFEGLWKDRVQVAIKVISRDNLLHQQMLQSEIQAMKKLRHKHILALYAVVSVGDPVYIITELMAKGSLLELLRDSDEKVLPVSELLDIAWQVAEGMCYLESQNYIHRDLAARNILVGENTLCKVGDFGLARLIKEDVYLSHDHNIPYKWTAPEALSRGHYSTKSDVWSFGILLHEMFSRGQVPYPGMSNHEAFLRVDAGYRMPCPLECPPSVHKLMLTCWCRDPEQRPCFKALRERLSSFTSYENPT
T3 sequence (Q8R455 whole entry): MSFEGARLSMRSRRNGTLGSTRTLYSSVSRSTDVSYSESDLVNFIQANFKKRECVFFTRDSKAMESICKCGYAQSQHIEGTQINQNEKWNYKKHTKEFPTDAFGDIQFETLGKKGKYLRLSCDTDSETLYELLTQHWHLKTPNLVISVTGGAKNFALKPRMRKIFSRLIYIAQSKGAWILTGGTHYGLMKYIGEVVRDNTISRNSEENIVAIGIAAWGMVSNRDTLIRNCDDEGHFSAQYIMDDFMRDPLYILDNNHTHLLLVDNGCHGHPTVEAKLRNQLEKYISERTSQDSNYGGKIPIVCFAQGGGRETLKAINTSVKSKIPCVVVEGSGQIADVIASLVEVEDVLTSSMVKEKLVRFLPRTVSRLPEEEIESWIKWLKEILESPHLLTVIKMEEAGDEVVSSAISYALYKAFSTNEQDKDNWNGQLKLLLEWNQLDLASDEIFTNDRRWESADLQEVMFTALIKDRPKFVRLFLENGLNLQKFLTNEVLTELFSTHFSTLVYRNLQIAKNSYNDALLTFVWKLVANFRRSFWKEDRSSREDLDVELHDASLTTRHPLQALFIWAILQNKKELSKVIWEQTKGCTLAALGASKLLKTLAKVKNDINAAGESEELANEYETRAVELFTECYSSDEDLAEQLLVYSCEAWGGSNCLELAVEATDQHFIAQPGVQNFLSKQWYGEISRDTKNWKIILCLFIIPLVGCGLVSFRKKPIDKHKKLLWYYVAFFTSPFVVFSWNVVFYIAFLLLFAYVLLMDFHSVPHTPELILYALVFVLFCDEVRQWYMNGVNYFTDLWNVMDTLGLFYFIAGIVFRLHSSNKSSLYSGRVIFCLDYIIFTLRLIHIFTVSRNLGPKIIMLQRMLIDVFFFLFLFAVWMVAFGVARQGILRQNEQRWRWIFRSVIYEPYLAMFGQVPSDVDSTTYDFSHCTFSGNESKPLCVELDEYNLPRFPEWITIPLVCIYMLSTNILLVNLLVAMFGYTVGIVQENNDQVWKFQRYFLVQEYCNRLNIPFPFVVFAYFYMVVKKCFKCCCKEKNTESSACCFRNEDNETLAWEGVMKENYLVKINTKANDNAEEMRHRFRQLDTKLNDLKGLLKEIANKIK

IC50 [1] [µM]	EC50 (rat TRPA1) [µM]	IC50 (rat TRPM8) [µM]	IC50 [2] [µM]	IC50 (human CB2R)	Structure (SMILES)	intracellular ROS levels (A375 cells)
19 ± 3.04	0.2 ± 0.09	> 30	> 30	9.7 ± 0.67 µM	CC(C)C[C@H]1C(=O)N(Cc2ccc(C(F)(F)F)cc2)c2ccccc2C(=O)N1Cc1ccc(C(F)(F)F)cc1 [Compound 31, (S)-3-Isobutyl-1,4-bis(4-(trifluoromethyl)benzyl)-3,4-dihydro-1H-benzo[e][1,4]diazepine-2,5-dione]	significant concentration-dependent increase in ROS levels
29.2 ± 4.53	2.54 ± 1.2	0.36 ± 0.08	> 30	6.9 µM and 6.91 µM	CC(C)C[C@@H](C(=O)OCc1ccccc1)N1Cc2ccccc2NC1=O [Compound 63, Benzyl (S)-4-Methyl-2-(2-oxo-1,4-dihydroquinazolin-3(2H)-yl)pentanoate]	delayed and more moderate effect than compound 31
